From US20130157954A1, “METHODS FOR TREATMENT OR PROPHYLAXIS OF KIDNEY OR LIVER DYSFUNCTION” (NPS PHARMACEUTICALS, INC., priority 2010, published 2013)

Assay: Example 1: liver biomarkers (total bilirubin, ALT, AST, ALP) in short bowel syndrome patients, every four weeks for 24 weeks; also sorted by >5% change from baseline
Format: in vivo, Human
Design: AST (SGOT) Change from Baseline Median / ALT (SGPT) Median / TOTAL BILIRUBIN Median / TOTAL BILIRUBIN Change from Baseline Median / ALT (SGPT) Change from Baseline Median / AST (SGOT) Median: unit not given here
Conditions: for ALKALINE PHOSPHATASE change from baseline −5% <= and <=5%, percent of patients / ALT (SGPT) change from baseline <−5%, number of patients / ALT (SGPT) change from baseline <−5%, percent of patients / ALT (SGPT) change from baseline >5%, number of patients / ALT (SGPT) change from baseline >5%, percent of patients / ALT (SGPT) change from baseline −5% <= and <=5%, number of patients / ALT (SGPT) change from baseline −5% <= and <=5%, percent of patients / AST (SGOT) change from baseline <−5%, number of patients / AST (SGOT) change from baseline <−5%, percent of patients / AST (SGOT) change from baseline >5%, number of patients / AST (SGOT) change from baseline >5%, percent of patients / AST (SGOT) change from baseline −5% <= and <=5%, number of patients / AST (SGOT) change from baseline −5% <= and <=5%, percent of patients / TOTAL BILIRUBIN change from baseline <−5%, number of patients / TOTAL BILIRUBIN change from baseline <−5%, percent of patients / TOTAL BILIRUBIN change from baseline >5%, number of patients / TOTAL BILIRUBIN change from baseline >5%, percent of patients / TOTAL BILIRUBIN change from baseline −5% <= and <=5%, number of patients / TOTAL BILIRUBIN change from baseline −5% <= and <=5%, percent of patients / ALKALINE PHOSPHATASE change from baseline <−5%, number of patients / ALKALINE PHOSPHATASE change from baseline <−5%, percent of patients / ALKALINE PHOSPHATASE change from baseline >5%, number of patients / ALKALINE PHOSPHATASE change from baseline >5%, percent of patients / ALKALINE PHOSPHATASE change from baseline −5% <= and <=5%, number of patients: 0.05 mg/kg/day
Experimental: Human patients with short bowel syndrome were divided into three groups: a control group (16 total individuals) to receive placebo, an experimental group (35 total individuals) to receive teduglutide at 0.05 mg/kg/day throughout the study, and an experimental group (32 total individuals) to receive teduglutide at 0.1 mg/kg/day throughout the study. Patients were treated by subcutaneous injection of placebo or the appropriate dose of teduglutide. As individuals with short bowel syndrome are likely to experience associated liver and kidney disease, known biomarkers of liver and kidney function were monitored every four weeks, for 24 weeks. The liver biomarkers tested included total bilirubin, ALT and AST and ALP. The kidney biomarkers tested included urea nitrogen, creatinine and GFR. Before administration of placebo or teduglutide, diagnostic biomarker levels were tested to establish a baseline for each individual.
To visualize the effect of GLP-2 on the levels of the diagnostic biomarkers, the average change from baseline was calculated for the placebo and teduglutide treated groups for each visit after a baseline was established. The average change from baseline of each group is depicted in FIGS. 1-7. The numerical figures for each diagnostic biomarker at each time point are depicted in Table 1.
The efficacy of teduglutide in treating liver dysfunction was further tested by sorting the data into two groups: individuals with abnormal baseline values of liver diagnostic biomarkers; and individuals with normal baseline values of liver diagnostic biomarkers. The mean diagnostic biomarker change from baseline for these two groups is shown for ALT (FIGS. 5 and 6) and AST (FIGS. 7 and 8). […] These changes were significant when compared to baseline levels for the group, and when compared to placebo (see FIGS. 5 and 7).
The raw data for this sorting is reproduced in Table 2 below.

CC[C@H](C)[C@H](NC(=O)[C@H](Cc1ccccc1)NC(=O)[C@H](CC(=O)O)NC(=O)[C@H](CCCNC(=N)N)NC(=O)[C@H](C)NC(=O)[C@H](C)NC(=O)[C@H](CC(C)C)NC(=O)[C@H](CC(N)=O)NC(=O)[C@H](CC(=O)O)NC(=O)[C@H](CC(C)C)NC(=O)[C@@H](NC(=O)[C@@H](NC(=O)[C@H](CC(N)=O)NC(=O)[C@H](CCSC)NC(=O)[C@H](CCC(=O)O)NC(=O)[C@H](CC(=O)O)NC(=O)[C@H](CO)NC(=O)[C@H](Cc1ccccc1)NC(=O)[C@H](CO)NC(=O)CNC(=O)[C@H](CC(=O)O)NC(=O)CNC(=O)[C@@H](N)Cc1c[nH]cn1)[C@@H](C)O)[C@@H](C)CC)C(=O)N[C@@H](CC(N)=O)C(=O)N[C@@H](Cc1c[nH]c2ccccc12)C(=O)N[C@@H](CC(C)C)C(=O)N[C@H](C(=O)N[C@@H](CCC(N)=O)C(=O)N[C@H](C(=O)N[C@@H](CCCCN)C(=O)N[C@H](C(=O)N[C@H](C(=O)N[C@@H](CC(=O)O)C(=O)O)[C@@H](C)O)[C@@H](C)CC)[C@@H](C)O)[C@@H](C)CC [teduglutide]
ALKALINE PHOSPHATASE change from baseline −5% <= and <=5%, percent of patients (week 12): (5.7%)
ALT (SGPT) change from baseline <−5%, number of patients (week 12): 19
ALT (SGPT) change from baseline <−5%, percent of patients (week 12): (54.3%)
ALT (SGPT) change from baseline >5%, number of patients (week 12): 4
ALT (SGPT) change from baseline >5%, percent of patients (week 12): (11.4%)
ALT (SGPT) change from baseline −5% <= and <=5%, number of patients (week 12): 4
ALT (SGPT) change from baseline −5% <= and <=5%, percent of patients (week 12): (11.4%)
AST (SGOT) change from baseline <−5%, number of patients (week 12): 19
AST (SGOT) change from baseline <−5%, percent of patients (week 12): (54.3%)
AST (SGOT) change from baseline >5%, number of patients (week 12): 5
AST (SGOT) change from baseline >5%, percent of patients (week 12): (14.3%)
AST (SGOT) change from baseline −5% <= and <=5%, number of patients (week 12): 3
AST (SGOT) change from baseline −5% <= and <=5%, percent of patients (week 12): (8.6%)
TOTAL BILIRUBIN change from baseline <−5%, number of patients (week 12): 14
TOTAL BILIRUBIN change from baseline <−5%, percent of patients (week 12): (40.0%)
TOTAL BILIRUBIN change from baseline >5%, number of patients (week 12): 6
TOTAL BILIRUBIN change from baseline >5%, percent of patients (week 12): (17.1%)
TOTAL BILIRUBIN change from baseline −5% <= and <=5%, number of patients (week 12): 4
TOTAL BILIRUBIN change from baseline −5% <= and <=5%, percent of patients (week 12): (11.4%)
ALKALINE PHOSPHATASE change from baseline <−5%, number of patients (week 16): 20
ALKALINE PHOSPHATASE change from baseline <−5%, percent of patients (week 16): (57.1%)
ALKALINE PHOSPHATASE change from baseline >5%, number of patients (week 16): 6
ALKALINE PHOSPHATASE change from baseline >5%, percent of patients (week 16): (17.1%)
ALKALINE PHOSPHATASE change from baseline −5% <= and <=5%, number of patients (week 16): 2
ALKALINE PHOSPHATASE change from baseline −5% <= and <=5%, percent of patients (week 16): (5.7%)
ALT (SGPT) change from baseline <−5%, number of patients (week 16): 16
ALT (SGPT) change from baseline <−5%, percent of patients (week 16): (45.7%)
ALT (SGPT) change from baseline >5%, number of patients (week 16): 12
ALT (SGPT) change from baseline >5%, percent of patients (week 16): (34.3%)
ALT (SGPT) change from baseline −5% <= and <=5%, number of patients (week 16): 0
ALT (SGPT) change from baseline −5% <= and <=5%, percent of patients (week 16): (0.0%)
AST (SGOT) change from baseline <−5%, number of patients (week 16): 14
AST (SGOT) change from baseline <−5%, percent of patients (week 16): (40.0%)
AST (SGOT) change from baseline >5%, number of patients (week 16): 8
AST (SGOT) change from baseline >5%, percent of patients (week 16): (22.9%)
AST (SGOT) change from baseline −5% <= and <=5%, number of patients (week 16): 6
AST (SGOT) change from baseline −5% <= and <=5%, percent of patients (week 16): (17.1%)
TOTAL BILIRUBIN change from baseline <−5%, number of patients (week 16): 14
TOTAL BILIRUBIN change from baseline <−5%, percent of patients (week 16): (40.0%)
TOTAL BILIRUBIN change from baseline >5%, number of patients (week 16): 9
TOTAL BILIRUBIN change from baseline >5%, percent of patients (week 16): (25.7%)
TOTAL BILIRUBIN change from baseline −5% <= and <=5%, number of patients (week 16): 3
TOTAL BILIRUBIN change from baseline −5% <= and <=5%, percent of patients (week 16): (8.6%)
ALKALINE PHOSPHATASE change from baseline <−5%, number of patients (week 20): 22
ALKALINE PHOSPHATASE change from baseline <−5%, percent of patients (week 20): (62.9%)
ALKALINE PHOSPHATASE change from baseline >5%, number of patients (week 20): 4
ALKALINE PHOSPHATASE change from baseline >5%, percent of patients (week 20): (11.4%)
ALKALINE PHOSPHATASE change from baseline −5% <= and <=5%, number of patients (week 20): 1
ALKALINE PHOSPHATASE change from baseline −5% <= and <=5%, percent of patients (week 20): (2.9%)
ALT (SGPT) change from baseline <−5%, number of patients (week 20): 17
ALT (SGPT) change from baseline <−5%, percent of patients (week 20): (48.6%)
ALT (SGPT) change from baseline >5%, number of patients (week 20): 9
ALT (SGPT) change from baseline >5%, percent of patients (week 20): (25.7%)
ALT (SGPT) change from baseline −5% <= and <=5%, number of patients (week 20): 1
ALT (SGPT) change from baseline −5% <= and <=5%, percent of patients (week 20): (2.9%)
AST (SGOT) change from baseline <−5%, number of patients (week 20): 17
AST (SGOT) change from baseline <−5%, percent of patients (week 20): (48.6%)
AST (SGOT) change from baseline >5%, number of patients (week 20): 6
AST (SGOT) change from baseline >5%, percent of patients (week 20): (17.1%)
AST (SGOT) change from baseline −5% <= and <=5%, number of patients (week 20): 4
AST (SGOT) change from baseline −5% <= and <=5%, percent of patients (week 20): (11.4%)
TOTAL BILIRUBIN change from baseline <−5%, number of patients (week 20): 12
TOTAL BILIRUBIN change from baseline <−5%, percent of patients (week 20): (34.3%)
TOTAL BILIRUBIN change from baseline >5%, number of patients (week 20): 7
TOTAL BILIRUBIN change from baseline >5%, percent of patients (week 20): (20.0%)
TOTAL BILIRUBIN change from baseline −5% <= and <=5%, number of patients (week 20): 6
TOTAL BILIRUBIN change from baseline −5% <= and <=5%, percent of patients (week 20): (17.1%)
ALKALINE PHOSPHATASE change from baseline <−5%, number of patients (week 24): 21
ALKALINE PHOSPHATASE change from baseline <−5%, percent of patients (week 24): (60.0%)
ALKALINE PHOSPHATASE change from baseline >5%, number of patients (week 24): 4
ALKALINE PHOSPHATASE change from baseline >5%, percent of patients (week 24): (11.4%)
ALKALINE PHOSPHATASE change from baseline −5% <= and <=5%, number of patients (week 24): 0
ALKALINE PHOSPHATASE change from baseline −5% <= and <=5%, percent of patients (week 24): (0.0%)
ALT (SGPT) change from baseline <−5%, number of patients (week 24): 18
ALT (SGPT) change from baseline <−5%, percent of patients (week 24): (51.4%)
ALT (SGPT) change from baseline >5%, number of patients (week 24): 4
ALT (SGPT) change from baseline >5%, percent of patients (week 24): (11.4%)
ALT (SGPT) change from baseline −5% <= and <=5%, number of patients (week 24): 4
ALT (SGPT) change from baseline −5% <= and <=5%, percent of patients (week 24): (11.4%)
AST (SGOT) change from baseline <−5%, number of patients (week 24): 17
AST (SGOT) change from baseline <−5%, percent of patients (week 24): (48.6%)
AST (SGOT) change from baseline >5%, number of patients (week 24): 6
AST (SGOT) change from baseline >5%, percent of patients (week 24): (17.1%)
AST (SGOT) change from baseline −5% <= and <=5%, number of patients (week 24): 3
AST (SGOT) change from baseline −5% <= and <=5%, percent of patients (week 24): (8.6%)
TOTAL BILIRUBIN change from baseline <−5%, number of patients (week 24): 8
TOTAL BILIRUBIN change from baseline <−5%, percent of patients (week 24): (22.9%)
TOTAL BILIRUBIN change from baseline >5%, number of patients (week 24): 10
TOTAL BILIRUBIN change from baseline >5%, percent of patients (week 24): (28.6%)
TOTAL BILIRUBIN change from baseline −5% <= and <=5%, number of patients (week 24): 4
TOTAL BILIRUBIN change from baseline −5% <= and <=5%, percent of patients (week 24): (11.4%)
ALT (SGPT) Change from Baseline Median (0.10 mg/kg/day, DW4): −6.5
ALT (SGPT) Median (0.10 mg/kg/day, DW4): 30.0
